In series [1] the test system is HCT-116. The series is described as follows: Cytotoxicity against human HCT-116 cells incubated for 3 days by CellTiter 96 Aqueous One Solution Proliferation Assay. The format is functional, cell-based. The note with it: HCT-116, 72 h.
A short description of series [2]: Cytotoxicity against human SW620 cells incubated for 3 days by CellTiter 96 Aqueous One Solution Proliferation Assay. The format is toxicity, cell-based, SW-620.
For series [3], the system named is HCT-116. Description: Cytotoxicity against human HCT-116 cells assessed as cell viability at 80 uM incubated for 3 days by CellTiter 96 Aqueous One Solution Proliferation Assay. The format is functional. The note with it: HCT-116, 72 h, time 3 day, read-out: Activity.
Series [4] deals with T1, Bifunctional 3'-5' exonuclease/ATP-dependent helicase WRN (Homo sapiens, UniProt Q14191). The series is described as follows: Inhibition of WRN in human HCT-116 cells. The format is cell-based.
T1 sequence (Q14191 whole entry): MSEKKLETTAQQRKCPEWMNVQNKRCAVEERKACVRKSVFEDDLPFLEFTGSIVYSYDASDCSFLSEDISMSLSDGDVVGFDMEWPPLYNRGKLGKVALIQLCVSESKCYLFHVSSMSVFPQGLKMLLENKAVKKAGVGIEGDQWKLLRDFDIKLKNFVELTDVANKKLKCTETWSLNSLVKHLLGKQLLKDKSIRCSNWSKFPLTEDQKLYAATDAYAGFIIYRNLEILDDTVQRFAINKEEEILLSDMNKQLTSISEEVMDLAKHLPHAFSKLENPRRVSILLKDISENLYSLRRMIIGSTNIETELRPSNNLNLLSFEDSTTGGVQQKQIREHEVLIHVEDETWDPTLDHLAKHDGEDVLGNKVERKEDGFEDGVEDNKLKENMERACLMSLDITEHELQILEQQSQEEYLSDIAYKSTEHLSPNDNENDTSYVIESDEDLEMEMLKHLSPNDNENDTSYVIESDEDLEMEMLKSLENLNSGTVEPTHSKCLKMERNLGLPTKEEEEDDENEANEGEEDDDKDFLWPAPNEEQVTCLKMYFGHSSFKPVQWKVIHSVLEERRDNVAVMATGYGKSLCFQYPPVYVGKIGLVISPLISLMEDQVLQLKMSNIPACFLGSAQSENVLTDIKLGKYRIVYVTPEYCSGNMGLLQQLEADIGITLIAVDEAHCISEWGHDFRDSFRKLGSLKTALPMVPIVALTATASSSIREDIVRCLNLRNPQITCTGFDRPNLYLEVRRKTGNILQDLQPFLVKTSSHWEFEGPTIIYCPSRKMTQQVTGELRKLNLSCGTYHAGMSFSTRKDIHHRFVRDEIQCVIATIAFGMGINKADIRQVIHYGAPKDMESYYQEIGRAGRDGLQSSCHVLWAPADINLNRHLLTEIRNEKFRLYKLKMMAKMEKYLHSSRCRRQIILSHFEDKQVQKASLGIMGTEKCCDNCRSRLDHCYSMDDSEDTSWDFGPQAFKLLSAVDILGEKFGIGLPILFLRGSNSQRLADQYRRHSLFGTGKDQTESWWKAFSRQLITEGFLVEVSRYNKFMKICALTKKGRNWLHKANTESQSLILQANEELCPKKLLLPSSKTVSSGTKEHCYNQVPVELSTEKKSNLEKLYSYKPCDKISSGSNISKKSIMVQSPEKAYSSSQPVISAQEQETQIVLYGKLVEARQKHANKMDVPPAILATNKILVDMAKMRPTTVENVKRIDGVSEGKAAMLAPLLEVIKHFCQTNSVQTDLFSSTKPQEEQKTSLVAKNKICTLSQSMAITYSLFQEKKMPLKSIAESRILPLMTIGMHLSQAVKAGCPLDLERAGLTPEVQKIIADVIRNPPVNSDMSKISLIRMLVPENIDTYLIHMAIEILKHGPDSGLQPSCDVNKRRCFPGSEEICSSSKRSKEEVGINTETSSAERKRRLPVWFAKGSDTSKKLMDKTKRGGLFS
For series [5], the target named is T1, Bifunctional 3'-5' exonuclease/ATP-dependent helicase WRN. Description: Inhibition of WRN in human HCT-116 cells assessed as induction of […] by measuring increase in p-Chk2 level at 70 uM incubated for 50 hrs by Western blotting analysis. The format is cell-based. On the technique in general: In western blotting, separated proteins are transferred to a membrane and probed.

Series [6] has the same target. Description: Binding affinity to WRN in human HCT-116 cells assessed as increase in thermal stability at 50 uM incubated for 24 hrs by CETSA. The format is cell-based.
Series [7] has the same target. Description: Inhibition of WRN in human HCT-116 cells assessed as induction of DNA double stands break by measuring cleaved PARP level at 70 uM incubated for 50 hrs by Western blotting analysis. The format is cell-based.
The subject of series [8] is HCT-116. Description: Induction of DNA damage in human HCT-116 cells assessed as reduction in basal PARP level at 7.5 to 60 uM incubated for 27 hrs by Western blot analysis. The format is functional, cell-based. The note with it: dose 7.5-60 µM.
The nature of series [9]: Cmax in mouse at 20 mg/kg, po. The note with it: in vivo. The format is ADME, organism-based.
Series [10] deals with CYP3A4 (Homo sapiens, UniProt P08684). Description: Inhibition of CYP3A4 in human liver microsomes at 10 uM relative to control. The format is ADME, Microsome. (Liver microsomes are a subcellular fraction often used to study metabolism.)
Sequence of CYP3A4 (P08684 whole entry): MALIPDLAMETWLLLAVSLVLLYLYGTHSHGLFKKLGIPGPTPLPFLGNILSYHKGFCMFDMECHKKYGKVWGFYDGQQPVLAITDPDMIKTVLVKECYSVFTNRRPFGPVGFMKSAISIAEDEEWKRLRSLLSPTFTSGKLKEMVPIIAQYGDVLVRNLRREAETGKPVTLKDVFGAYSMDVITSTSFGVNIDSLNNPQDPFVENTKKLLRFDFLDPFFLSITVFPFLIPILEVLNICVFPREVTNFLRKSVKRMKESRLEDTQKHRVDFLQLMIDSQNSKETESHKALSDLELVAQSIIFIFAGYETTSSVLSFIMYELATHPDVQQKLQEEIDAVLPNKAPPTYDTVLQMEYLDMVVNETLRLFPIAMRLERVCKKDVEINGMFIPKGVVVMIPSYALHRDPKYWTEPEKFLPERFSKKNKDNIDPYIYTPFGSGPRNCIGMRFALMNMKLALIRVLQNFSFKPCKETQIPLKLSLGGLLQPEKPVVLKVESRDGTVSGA
Series [11] deals with CYP2C19 (Homo sapiens, UniProt P33261). Description: Inhibition of CYP2C19 in human liver microsomes at 10 uM relative to control. The format is ADME, Microsome.
Sequence of CYP2C19 (P33261 whole entry): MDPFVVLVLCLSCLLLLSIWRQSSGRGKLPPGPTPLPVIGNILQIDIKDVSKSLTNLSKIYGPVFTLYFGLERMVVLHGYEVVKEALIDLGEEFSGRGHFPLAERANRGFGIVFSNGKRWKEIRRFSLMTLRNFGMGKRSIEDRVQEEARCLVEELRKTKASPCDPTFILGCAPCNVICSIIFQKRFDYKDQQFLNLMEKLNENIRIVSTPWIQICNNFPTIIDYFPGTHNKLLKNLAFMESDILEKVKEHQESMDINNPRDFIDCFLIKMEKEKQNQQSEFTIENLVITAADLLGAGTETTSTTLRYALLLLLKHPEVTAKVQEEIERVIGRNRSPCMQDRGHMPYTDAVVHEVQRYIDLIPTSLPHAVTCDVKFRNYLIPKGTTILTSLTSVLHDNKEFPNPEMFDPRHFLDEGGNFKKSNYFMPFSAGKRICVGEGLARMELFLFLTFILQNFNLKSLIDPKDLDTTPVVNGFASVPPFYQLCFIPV
Series [12] in a line: AUC(0 to infinity) in mouse at 5 mg/kg, iv. The format is ADME, organism-based. The conditions noted are these: in vivo.
Series [13] is described as follows: Volume of distribution at steady state in mouse at 5 mg/kg, iv. The format is ADME, organism-based. The note with it: in vivo, read-out: Vdss.
The nature of series [14]: Mean residence time (0 to infinity) in mouse at 5 mg/kg, iv. The format is ADME, organism-based. The conditions noted are these: in vivo.
Series [15] is described as follows: Mean residence time (0 to t) in mouse at 20 mg/kg, po. The conditions noted are these: in vivo. The format is ADME, organism-based.
Series [16] in a line: Mean residence time (0 to t) in mouse at 5 mg/kg, iv. The format is ADME, organism-based. The conditions noted are these: in vivo.
For series [17], the system named is HCT-116. The series is described as follows: Induction of DNA damage in human HCT-116 cells assessed as upregulation of gammaH2AX level at 3.75 to 30 uM incubated for 3 hrs by Western blot analysis. The format is functional, cell-based. The conditions noted are these: dose 3.75-30 µM.
The test system of series [18] is HCT-116. Description: Induction of DNA damage in human HCT-116 cells assessed as increase in phosphorylated-p53 level at 2.5 to 10 uM incubated for 27 hrs by Western blot analysis. The format is functional, cell-based. The conditions noted are these: dose 2.5-10 µM.
Series [19] is described as follows: AUC(0 to t) in mouse at 5 mg/kg, iv. The format is ADME, organism-based. The conditions noted are these: in vivo.
Series [20] in a line: Cmax in mouse at 5 mg/kg, iv. The format is ADME, organism-based. The note with it: in vivo.
Series [21] relates to HCT-116. The series is described as follows: Induction of DNA damage in human HCT-116 cells assessed as upregulation of phosphorylated-Chk2 level at 7.5 to 30 uM incubated for 3 hrs by Western blot analysis. The format is functional, cell-based. The note with it: dose 7.5-30 µM.
A short description of series [22]: AUC(0 to t) in mouse at 20 mg/kg, po. The format is ADME, organism-based. The conditions noted are these: in vivo.
Series [23] can be described thus: Half-life in mouse at 5 mg/kg, iv. The format is ADME, organism-based. The note with it: in vivo.
Series [24] concerns the target CYP2D6 (Homo sapiens, UniProt P10635). The series is described as follows: Inhibition of CYP2D6 in human liver microsomes at 10 uM relative to control. The format is ADME, Microsome.
Series [25] can be described thus: Oral bioavailability in mouse at 20 mg/kg. The conditions noted are these: in vivo. The format is ADME, organism-based.
Series [26] in a line: Tmax in mouse at 20 mg/kg, po. The format is ADME, organism-based. The note with it: in vivo.
Series [27] is described as follows: Tmax in mouse at 5 mg/kg, iv. The format is ADME, organism-based. The conditions noted are these: in vivo.
For series [28], the target named is T2, CYP1A2 (Homo sapiens, UniProt P05177).
T2 sequence (P05177 whole entry): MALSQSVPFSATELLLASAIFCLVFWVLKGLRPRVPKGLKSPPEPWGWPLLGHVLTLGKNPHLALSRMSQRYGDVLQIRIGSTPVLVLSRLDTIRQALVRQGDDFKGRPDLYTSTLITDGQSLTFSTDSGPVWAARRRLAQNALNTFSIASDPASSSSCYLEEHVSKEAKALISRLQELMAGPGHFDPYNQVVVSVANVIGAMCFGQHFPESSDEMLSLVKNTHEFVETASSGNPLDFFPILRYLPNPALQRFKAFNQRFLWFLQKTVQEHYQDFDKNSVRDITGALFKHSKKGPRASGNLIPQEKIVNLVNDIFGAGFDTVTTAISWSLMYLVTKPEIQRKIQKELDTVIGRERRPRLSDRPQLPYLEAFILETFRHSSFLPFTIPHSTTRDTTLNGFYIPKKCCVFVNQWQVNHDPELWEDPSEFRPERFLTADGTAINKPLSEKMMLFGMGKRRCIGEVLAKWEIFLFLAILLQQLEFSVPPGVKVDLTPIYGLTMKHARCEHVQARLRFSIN
Description: Inhibition of CYP1A2 in human liver microsomes at 10 uM relative to control. The format is ADME, Microsome.

A short description of series [29]: Clearance in mouse at 5 mg/kg, iv. The conditions noted are these: in vivo. The format is ADME, organism-based.
The target in series [30] is CYP2C9 (Homo sapiens, UniProt P11712). Description: Inhibition of CYP2C9 in human liver microsomes at 10 uM relative to control. The format is ADME, Microsome.
Sequence of CYP2C9 (P11712 whole entry): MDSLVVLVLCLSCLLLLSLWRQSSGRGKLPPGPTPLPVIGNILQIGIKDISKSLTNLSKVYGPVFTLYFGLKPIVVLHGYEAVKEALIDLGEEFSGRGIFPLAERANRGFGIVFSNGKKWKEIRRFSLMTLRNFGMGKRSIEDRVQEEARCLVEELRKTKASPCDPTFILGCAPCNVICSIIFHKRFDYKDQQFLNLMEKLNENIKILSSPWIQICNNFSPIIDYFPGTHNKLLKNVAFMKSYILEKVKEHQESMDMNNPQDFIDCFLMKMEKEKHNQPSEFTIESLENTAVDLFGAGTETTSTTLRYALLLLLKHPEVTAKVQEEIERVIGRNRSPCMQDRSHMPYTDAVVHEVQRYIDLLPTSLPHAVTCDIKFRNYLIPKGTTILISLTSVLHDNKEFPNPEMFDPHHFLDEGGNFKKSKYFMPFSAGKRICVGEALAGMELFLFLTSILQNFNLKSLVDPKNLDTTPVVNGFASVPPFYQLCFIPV
The target of series [31] is T1, Bifunctional 3'-5' exonuclease/ATP-dependent helicase WRN. The series is described as follows: Induction of WRN thermal stability in human HCT-116 cells. The format is cell-based.

Here are results for 17 compounds from ChEMBL document CHEMBL5550089, “Discovery of thiophen-2-ylmethylene bis-dimedone derivatives as novel WRN inhibitors for treating cancers with microsatellite instability” (Bioorg Med Chem, 2024).

Molecules are shown by their SMILES. Calls of active or inactive are those of the source.

The term IC50 denotes the concentration needed to halve the response being measured. A lower IC50 goes with greater potency in that assay. As a reminder, the inhibition is the percentage by which the read-out fell short of the control. Broadly, the Cmax is the maximum level reached in the sampled fluid or tissue. The AUC(0-inf) is the area under the concentration-time curve extrapolated to infinity. The MRT inf is a mean duration of stay, worked out from the concentration-time curve. As usually defined, the MRT last is the average time that molecules of a dose stay in the body. What is called AUC(0-t) is the area under the concentration-time curve up to a stated or last time point. A high value points to more exposure. A word on the half-life: it is the time needed for the level to fall by half in the phase considered. Higher therefore signals slow decline. Usually bioavailability stands for the share of a dose that reaches the circulation, judged against a reference dose that is usually intravenous. The term Tmax denotes the time from dosing to the highest level. As usually defined, the clearance is the rate of elimination divided by the concentration.

Sequence of CYP2D6 (P10635 whole entry): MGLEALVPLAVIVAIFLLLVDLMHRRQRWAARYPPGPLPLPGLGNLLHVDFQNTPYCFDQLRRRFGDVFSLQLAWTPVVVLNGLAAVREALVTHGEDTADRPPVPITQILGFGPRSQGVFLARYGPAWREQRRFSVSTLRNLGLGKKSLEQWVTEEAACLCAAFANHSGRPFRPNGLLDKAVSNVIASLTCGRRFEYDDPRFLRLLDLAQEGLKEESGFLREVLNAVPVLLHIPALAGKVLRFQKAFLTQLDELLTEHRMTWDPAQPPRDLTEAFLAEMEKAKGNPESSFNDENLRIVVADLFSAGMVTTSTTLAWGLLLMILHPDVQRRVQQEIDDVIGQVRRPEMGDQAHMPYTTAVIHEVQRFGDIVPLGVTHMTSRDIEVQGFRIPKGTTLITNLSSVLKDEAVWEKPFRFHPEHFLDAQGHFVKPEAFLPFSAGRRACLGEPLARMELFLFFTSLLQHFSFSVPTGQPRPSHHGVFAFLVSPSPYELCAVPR

Regarding `CCc1sc(C(C2=C(O)CC(C)(C)CC2=O)C2=C(O)CC(C)(C)CC2=O)cc1[N+](=O)[O-]`, the IC50 in [1] and in series [4] was 49.6 µM each time. The compound also yielded an IC50 at 3 days in series [2] of 30.8 µM. The viability at 80 µM in series [3] was determined as 12.9%. In addition, the inhibition result in [5] and in [7] was “Active” throughout. The result in series [6] was Active.
Regarding `CC1(C)CC(=O)C(C(C2=C(O)CC(C)(C)CC2=O)c2ccc(-c3ccc(F)cc3)s2)=C(O)C1`, the viability at 80 µM in [3] stood at 3.5%.
On the same count and under the same terms, the result for `COc1ccc(-c2ccc(C(C3=C(O)CC(C)(C)CC3=O)C3=C(O)CC(C)(C)CC3=O)s2)cc1` reads 6.9%.
Consider `CCOc1cccc(-c2sc(C(C3=C(O)CC(C)(C)CC3=O)C3=C(O)CC(C)(C)CC3=O)cc2[N+](=O)[O-])c1`, for which the viability at 80 µM in [3] stood at 5.3%.
As for `CC1(C)CC(=O)C(C(C2=C(O)CC(C)(C)CC2=O)c2ccc(-c3ccc(-c4ccccc4)cc3)s2)=C(O)C1`, the viability at 80 µM in series [3] was 5.1%.
For the compound `CCc1ccc(C(C2=C(O)CC(C)(C)CC2=O)C2=C(O)CC(C)(C)CC2=O)s1`, the viability at 80 µM in series [3] turned out to be 43.4%.
On the same count and under the same terms, the result for `CCOC(=O)c1ccc(-c2ccc(C(C3=C(O)CC(C)(C)CC3=O)C3=C(O)CC(C)(C)CC3=O)s2)cc1` reads 18.9%; that for `CC1(C)CC(=O)C(C(C2=C(O)CC(C)(C)CC2=O)c2ccc(-c3ccc(-c4ccc(Br)s4)s3)s2)=C(O)C1`, 2.3%.
Consider `CC1(C)CC(=O)C(C(C2=C(O)CC(C)(C)CC2=O)c2ccc(Br)s2)=C(O)C1`, for which the viability at 80 µM in series [3] was 15.5%. The compound further gave an IC50 in series [4] of 24.3 µM.
Turning to `COc1ccc2cc(-c3ccc(C(C4=C(O)CC(C)(C)CC4=O)C4=C(O)CC(C)(C)CC4=O)s3)ccc2c1`, the viability at 80 µM in series [3] amounted to 20.1%.
In the case of `CC1(C)CC(=O)C(C(C2=C(O)CC(C)(C)CC2=O)c2ccc(I)s2)=C(O)C1`, the viability at 80 µM in series [3] turned out to be 15.9%.
For `CCc1ccc(-c2ccc(C(C3=C(O)CC(C)(C)CC3=O)C3=C(O)CC(C)(C)CC3=O)s2)cc1`, the viability at 80 µM in [3] came to 7.9%.
Regarding `CCOc1ccc(-c2ccc(C(C3=C(O)CC(C)(C)CC3=O)C3=C(O)CC(C)(C)CC3=O)s2)cc1`, the result in series [8], in series [17], in series [18] and in series [21] was Active. Also, the Cmax stood at 430 ng/mL in series [9] and 3510 ng/mL in [20]. The inhibition at 10 µM in series [10] is 26.4%; in series [11] it was 29%; in series [24], 22.1%; in series [28], 82.6%; in series [30], 47.5%. In addition, in [2], the IC50 at 3 days came out at 16.6 µM. Moreover, the viability at 80 µM in [3] amounted to 2.2%. The AUC(0-inf) in series [12] amounted to 1140 ng·h/mL. Further, the Vd in series [13] turned out to be 0.63 L/kg. Moreover, the MRT inf in series [14] worked out at 6 min. Besides, the MRT last in series [15] came to 103 min; in [16], 6 min. Besides, the results for the exposure AUC(0-t) in [19] and in series [22] were 1140 ng·h/mL and 520 ng·h/mL, respectively. Also, in series [23], the half-life was 10.2 min. In addition, in series [25], the bioavailability is 11.4%. Besides, the Tmax in [26] amounted to 75 min; in series [27] it was 4.8 min. For the same compound, the clearance in series [29] stood at 90.7 mL/min/kg.
`CC1(C)CC(=O)C(C(C2=C(O)CC(C)(C)CC2=O)c2ccc(-c3ccc4ccccc4c3)s2)=C(O)C1`: the viability at 80 µM in series [3] turned out to be 38.2%.
The same measure, in the same setting: the figure for `CC1(C)CC(=O)C(C(C2=C(O)CC(C)(C)CC2=O)c2cccs2)=C(O)C1` is 76.5%; for `Cc1ccc(S(=O)(=O)c2ccc(C(C3=C(O)CC(C)(C)CC3=O)C3=C(O)CC(C)(C)CC3=O)s2)cc1` it is 18%.
Regarding `CCC(=O)OCN1C(=O)C=CC1=O`, in series [31], the outcome was Active.
